Assay results: PubChem BioAssay AID248 (DTP/NCI, 2004)
“And” between values parts separate entries of the source, which are not always exact repeats. Equal values may be shown once. Inconclusive results and toxic doses are left out. No stated cut-off is given here; in the data, active means T/C of 150% or more; inactive means T/C below 125%.

Test system: L1210 leukemia ip in BDF1 mice, survival T/C
Test: NCI In Vivo Anticancer Drug Screen. Data for tumor model L1210 Leukemia (intraperitoneal) in B6D2F1 (BDF1) mice
Conditions: endpoint: mean survival time, higher = longer survival
How it was run: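 In this screen, tumor-bearing mice given compound are compared to those given vehicle, and their survival values are reported as a treated-to-control quotient.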

[1] = dose: 100.0 mg/kg/injection, schedule: Q04DX003 (ip), vehicle: Klucel (hydroxypropylcellulose) (HPC)
[2] = dose: 200.0 mg/kg/injection, schedule: Q04DX003 (ip), vehicle: Klucel (hydroxypropylcellulose) (HPC)
[3] = dose: 400.0 mg/kg/injection, schedule: Q04DX003 (ip), vehicle: Klucel (hydroxypropylcellulose) (HPC)
[4] = dose: 100.0 mg/kg/injection, schedule: Q04DX002 (ip), vehicle: Klucel (hydroxypropylcellulose) (HPC)
[5] = dose: 200.0 mg/kg/injection, schedule: Q04DX002 (ip), vehicle: Klucel (hydroxypropylcellulose) (HPC)
[6] = dose: 400.0 mg/kg/injection, schedule: Q04DX002 (ip), vehicle: Klucel (hydroxypropylcellulose) (HPC)
[7] = dose: 100.0 mg/kg/injection, schedule: Q01DX001 (ip), vehicle: saline
[8] = dose: 200.0 mg/kg/injection, schedule: Q01DX001 (ip), vehicle: saline
[9] = dose: 400.0 mg/kg/injection, schedule: Q01DX001 (ip), vehicle: saline
[10] = dose: 100.0 mg/kg/injection, schedule: Q01DX009 (ip), vehicle: Klucel (hydroxypropylcellulose) (HPC)
[11] = dose: 200.0 mg/kg/injection, schedule: Q01DX009 (ip), vehicle: Klucel (hydroxypropylcellulose) (HPC)
[12] = dose: 400.0 mg/kg/injection, schedule: Q01DX009 (ip), vehicle: Klucel (hydroxypropylcellulose) (HPC)
[13] = dose: 100.0 mg/kg/injection, schedule: Q01DX001 (ip), vehicle: Klucel (hydroxypropylcellulose) (HPC)
[14] = dose: 200.0 mg/kg/injection, schedule: Q01DX001 (ip), vehicle: Klucel (hydroxypropylcellulose) (HPC)
[15] = dose: 400.0 mg/kg/injection, schedule: Q01DX001 (ip), vehicle: Klucel (hydroxypropylcellulose) (HPC)
[16] = dose: 50.0 mg/kg/injection, schedule: Q01DX001 (ip), vehicle: saline
[17] = dose: 100.0 mg/kg/injection, schedule: Q04DX003 (ip), vehicle: saline with Tween-80
[18] = dose: 200.0 mg/kg/injection, schedule: Q04DX003 (ip), vehicle: saline with Tween-80
[19] = dose: 400.0 mg/kg/injection, schedule: Q04DX003 (ip), vehicle: saline with Tween-80

Measured: T/C

Fc1ccc(CC(F)(F)F)cc1
inactive: dose: 100.0 mg/kg/injection, schedule: Q01DX001 (ip), vehicle: saline with Tween-80 97 % of control | dose: 200.0 mg/kg/injection, schedule: Q01DX001 (ip), vehicle: saline with Tween-80 105 % of control | dose: 400.0 mg/kg/injection, schedule: Q01DX001 (ip), vehicle: saline with Tween-80 98 % of control

CCCCCCCCCC1=NN(C2=NCCCC2)C(=O)C1
inactive: [1] 100 % of control | [2] 101 % of control | [3] 95 % of control

O=S(=O)(Cc1ccccc1)C(Br)Br
inactive: dose: 100.0 mg/kg/injection, schedule: Q01DX001 (ip), vehicle: other 106 % of control | [4] 100 % of control | dose: 200.0 mg/kg/injection, schedule: Q01DX001 (ip), vehicle: other 101 % of control | [5] 97 % of control | dose: 400.0 mg/kg/injection, schedule: Q01DX001 (ip), vehicle: other 101 % of control | [6] 103 % of control

CCCCCCCCCC(F)CCCCCCCC(=O)O (stereo not given) (tested in a mixture with another compound)
inactive: [7] 91 % of control | [8] 91 % of control | [9] 95 % of control

COc1cccc(N=Cc2ccc(C=Nc3cccc(OC)c3)cc2)c1
inactive: [10] 89 % of control | [11] 94 % of control | [12] 88 % of control

CCOC(=O)/C=C(\c1ccccc1)c1ccc([N+](=O)[O-])cc1
inactive: [13] 94 % of control | [10] 105 % of control and 90 % of control | [4] 93 % of control and 98 % of control | [1] 107 % of control | [14] 98 % of control | [11] 103 % of control and 90 % of control | [5] 100 % of control and 106 % of control | [2] 102 % of control | [15] 102 % of control | [12] 106 % of control and 110 % of control | [6] 98 % of control and 100 % of control | [3] 98 % of control

CCN(CC)C(=S)[S][Sn]([c]1ccccc1)([c]1ccccc1)[c]1ccccc1
inactive: dose: 100.0 mg/kg/injection, schedule: Q01DX001 (ip), vehicle: steriod suspending solution 109 % of control | dose: 200.0 mg/kg/injection, schedule: Q01DX001 (ip), vehicle: steriod suspending solution 98 % of control | dose: 400.0 mg/kg/injection, schedule: Q01DX001 (ip), vehicle: steriod suspending solution 98 % of control

CC(=S)Nc1ccccc1
inactive: dose: 25.0 mg/kg/injection, schedule: Q01DX009 (ip), vehicle: Klucel (hydroxypropylcellulose) (HPC) 101 % of control | dose: 50.0 mg/kg/injection, schedule: Q01DX009 (ip), vehicle: Klucel (hydroxypropylcellulose) (HPC) 104 % of control | [10] 95 % of control

CCCCCCNC(=S)Nc1ccccc1
inactive: [16] 97 % of control | [7] 103 % of control | [8] 97 % of control

CC(=O)OC1(C2(OC(C)=O)C=CC(=NS(=O)(=O)c3ccccc3)C=C2)C=CC(=NS(=O)(=O)c2ccccc2)C=C1 (stereo not given)
inactive: dose: 100.0 mg/kg/injection, schedule: Q01DX009 (ip), vehicle: saline with Tween-80 100 % of control | [17] 94 % of control | dose: 200.0 mg/kg/injection, schedule: Q01DX009 (ip), vehicle: saline with Tween-80 93 % of control | [18] 90 % of control | dose: 400.0 mg/kg/injection, schedule: Q01DX009 (ip), vehicle: saline with Tween-80 97 % of control | [19] 87 % of control

O=C(O)c1ccc2c(c1Nc1ccc(-c3ccc(Nc4c(C(=O)O)ccc5c4C(=O)c4ccccc4C5=O)cc3)cc1)C(=O)c1ccccc1C2=O
inactive: [1] 93 % of control | [2] 97 % of control | [3] 101 % of control

CCCCOC(=O)c1ccc(NC(=O)Nc2ccccc2CC)cc1
inactive: [10] 102 % of control | [11] 109 % of control | [12] 94 % of control

O=C1OCCC1n1cc(F)c(=O)[nH]c1=O (stereo not given)
inactive: [1] 102 % of control | [2] 98 % of control | [3] 96 % of control

COc1ccc2c(c1)CCC1C2CCC2(C)C1CCC21CCNP(=O)(N(CCCl)CCCl)O1 (stereo not given)
inactive: [1] 101 % of control | [2] 103 % of control | [3] 92 % of control

CCOC(=O)C1CN(c2ccccc2)C(=O)C1=O (stereo not given)
inactive: [16] 104 % of control | [7] 98 % of control | [8] 96 % of control | [9] 98 % of control

CCCCNC(=O)C1C2C=CC(C2)C1C(=O)NCCCC (stereo not given)
inactive: [17] 96 % of control | [18] 96 % of control | [19] 91 % of control

CSc1nccc(NN=C2CCCCC2)n1
inactive: [13] 98 % of control | [10] 96 % of control | [14] 94 % of control | [11] 98 % of control | [15] 91 % of control

CC[NH-].CC[NH-].[Cl][Pt+2][Cl]
inactive: dose: 0.75 mg/kg/injection, schedule: Q01DX009 (ip), vehicle: other 106 % of control | dose: 1.5 mg/kg/injection, schedule: Q01DX001 (ip), vehicle: other 101 % of control | dose: 1.5 mg/kg/injection, schedule: Q01DX009 (ip), vehicle: other 118 % of control | dose: 2.6 mg/kg/injection, schedule: Q01DX009 (ip), vehicle: Klucel (hydroxypropylcellulose) (HPC) 108 % of control and 114 % of control | dose: 3.0 mg/kg/injection, schedule: Q01DX001 (ip), vehicle: other 106 % of control | dose: 3.0 mg/kg/injection, schedule: Q01DX009 (ip), vehicle: other 124 % of control | dose: 4.0 mg/kg/injection, schedule: Q01DX009 (ip), vehicle: Klucel (hydroxypropylcellulose) (HPC) 108 % of control and 119 % of control | dose: 5.0 mg/kg/injection, schedule: Q04DX003 (ip), vehicle: Klucel (hydroxypropylcellulose) (HPC) 107 % of control | dose: 6.0 mg/kg/injection, schedule: Q01DX009 (ip), vehicle: Klucel (hydroxypropylcellulose) (HPC) 115 % of control and 119 % of control | dose: 8.0 mg/kg/injection, schedule: Q04DX003 (ip), vehicle: Klucel (hydroxypropylcellulose) (HPC) 110 % of control | dose: 9.0 mg/kg/injection, schedule: Q01DX009 (ip), vehicle: Klucel (hydroxypropylcellulose) (HPC) 107 % of control | dose: 12.0 mg/kg/injection, schedule: Q01DX001 (ip), vehicle: other 121 % of control | dose: 12.5 mg/kg/injection, schedule: Q01DX009 (ip), vehicle: Klucel (hydroxypropylcellulose) (HPC) 119 % of control | dose: 18.0 mg/kg/injection, schedule: Q04DX003 (ip), vehicle: Klucel (hydroxypropylcellulose) (HPC) 117 % of control | dose: 25.0 mg/kg/injection, schedule: Q04DX003 (ip), vehicle: Klucel (hydroxypropylcellulose) (HPC) 90 % of control

COc1ccccc1C(=O)NS(=O)(=O)c1ccc(Cl)cc1
inactive: dose: 100.0 mg/kg/injection, schedule: Q04DX003 (ip), vehicle: acetone 113 % of control | dose: 200.0 mg/kg/injection, schedule: Q04DX003 (ip), vehicle: acetone 101 % of control | dose: 400.0 mg/kg/injection, schedule: Q04DX003 (ip), vehicle: acetone 96 % of control

CC(=O)Oc1cc2c3c(c1)CCCN3CCC2
inactive: dose: 1.25 mg/kg/injection, schedule: Q01DX009 (ip), vehicle: saline 101 % of control | dose: 2.5 mg/kg/injection, schedule: Q01DX009 (ip), vehicle: saline 106 % of control | dose: 5.0 mg/kg/injection, schedule: Q01DX009 (ip), vehicle: saline 98 % of control
